The record followed here is publication PMC4342491, “Cross-talk between Two Nucleotide-signaling Pathways in Staphylococcus aureus” (The Journal of Biological Chemistry, 2015).

Test [1] deals with T1, GdpP (rGdpP) (Staphylococcus aureus, UniProt Q2G2T6).
T1 construct: gene SAOUHSC_00015; residues 84-655, N-terminal transmembrane helices removed
T1 sequence (Q2G2T6 84-655): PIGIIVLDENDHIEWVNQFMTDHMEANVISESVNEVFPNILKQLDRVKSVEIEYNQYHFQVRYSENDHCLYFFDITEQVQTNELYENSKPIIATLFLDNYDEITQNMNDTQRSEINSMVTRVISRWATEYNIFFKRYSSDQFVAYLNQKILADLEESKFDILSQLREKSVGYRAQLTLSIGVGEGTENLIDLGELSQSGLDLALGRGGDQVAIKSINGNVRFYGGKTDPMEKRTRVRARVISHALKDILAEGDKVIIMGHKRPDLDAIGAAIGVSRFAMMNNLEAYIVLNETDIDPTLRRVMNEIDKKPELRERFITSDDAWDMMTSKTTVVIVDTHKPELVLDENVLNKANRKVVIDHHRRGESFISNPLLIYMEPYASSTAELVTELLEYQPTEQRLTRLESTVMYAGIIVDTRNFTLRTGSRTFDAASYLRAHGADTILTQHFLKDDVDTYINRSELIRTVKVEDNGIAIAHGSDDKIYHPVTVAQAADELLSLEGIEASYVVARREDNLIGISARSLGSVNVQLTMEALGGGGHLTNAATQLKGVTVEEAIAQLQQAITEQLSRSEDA
In words: TLC of radiolabelled c-di-AMP hydrolysis to pApA. Format: biochemical. Conditions: labelled compound; 20 μM c-di-AMP, 1 μM enzyme, 50 mM Tris pH 8.5, 0.1 mM MnCl2, 20 mM KCl, room temperature, no ppGpp.

In test [2] the target is T1, GdpP (rGdpP). In words: TLC of […]c-di-AMP hydrolysis to pApA, dose-response fit. Format: biochemical.

Turning to `Nc1ncnc2c1ncn2[C@@H]1O[C@@H]2COP(=O)(O)O[C@H]3[C@@H](O)[C@H](n4cnc5c(N)ncnc54)O[C@@H]3COP(=O)(O)O[C@H]2[C@H]1O` [c-di-AMP], the “% pApA formation” value on GdpP (rGdpP) [1] is listed as “rGdpP was able to efficiently hydrolyze c-di-AMP in the absence of ppGpp”.
As to `Nc1nc2c(ncn2[C@@H]2O[C@H](COP(=O)(O)OP(=O)(O)O)[C@@H](OP(=O)(O)OP(=O)(O)O)[C@H]2O)c(=O)[nH]1` [ppGpp], at GdpP (rGdpP) [2], affinity was put at a Ki of 130 ± 42.8 µM.
